According to US7144889B2, “Triarylimidazoles” (Hoffman-La Roche Inc., priority 2003, dated 2006):

What follows are compounds tested against T1, c-met (Homo sapiens, UniProt P08581) (assay: C-met Autoactivation Kinase Assay (AKA), ELISA type assay on HT29 cell lysate). Settings: phosphorylation of c-met from HT29 lysate, 40 μM ATP.
T1 construct: endogenous in cells; host or cells: HT29 (ATCC HTB-38), human colon adenocarcinoma
Format: biochemical
Text: C-met Autoactivation Kinase Assay (AKA)
C-met is a typical tyrosine kinase which is involved in metastasis, proliferation/apoptosis and angiogenesis of tumors. The assay is an ELISA type assay measuring the phosphorylation of c-met using a phospho-tyrosine specific antibody.
Cell lysate of human colon adenocarcinoma HT29 known for its high content of c-met is bound to the wells of a microtiterplate (MTP) via an anti-hHGF receptor antibody (anti-hHGFR). ATP-phosphorylation of c-met is detected in presence or absence of the test compounds by using a phospho-tyrosine mouse IgG and a POD labeled goat anti-mouse IgG detection system. Using the classical POD substrate TMB, an absorption at 450 nm/620 nm is used to calculate enzymatic activity.
Plates: 96-well polystyrene plates (NUNC) streptavidin-coated microtiter plates Cell line/Lysate: HT29 (ATCC HTB-38), human colon adenocarcinoma (confluence: 2.5×10^5 cells/cm^2) are washed with PBS and incubated with Lysis buffer for 10 min on ice. Supernatent is collected and diluted with TBS. Lysate is shockfrozen in liquid nitrogen and stored at −80° C.)
Reagents (all working solutions are kept at 4° C., unless stated otherwise): • anti-hHGFR detection stock solution: 50 μg/ml (R&D Systems, Cat.No. BAF 358) antibody final conc.: 1 μg/ml • p-Tyr (PY99) mouse stock solution: 200 μg/ml (Santa Cruz Biotechnology, monoclonal IgG2b Cat.No. SC-7020) final conc.: 0.2 μg/ml • goat-anti-mouse IgG: 2 ml (BIO RAD, Cat.No. 170–6516) • (H+L)-HRP Conjugate; final conc.: 1:2000 • Blocking Reagent: Roche Diagnostics GmbH, Cat.No.1 112589 for ELISA diluted 1:10 in TBS • ATP: Adenosine-5′-triphosphate, stock solution 10 mM, stock solution 10 mM (Roche Diagnostics GmbH, Cat.No. 127531) final conc.: 40 μM • TBS: Tris-buffered saline, 50 mM TRIS pH 7.5 (Roche Diagnostics GmbH, Cat.No. 708976), 150 mM NaCl (SIGMA, Cat.No. S-3014) • Wash buffer TBS-T: Tris-buffered saline, 50 mM TRIS pH 7.5 150 mM NaCl, containing 0.5% Tween20 • Kinase buffer: Tris-buffered saline, 50 mM TRIS pH 7.5, 100 mM NaCl, 60 mM MgCl2 (SIGMA Chemical Company, Cat.No. M-1028) • Lysis buffer: 50 mM TRIS pH 7.5 containing 1% Nonidet P40 (Roche Diagnostics GmbH, Cat.No.1754599) 0.5 % Deoxycholic acid (SIGMA Chemical Company, Cat.No. D-6750) final conc.: 1 mM 1 mM PMSF stock solution 70 mM (Roche Diagnostics GmbH, Cat.No.837091 40 μl/ml Complete (Roche Diagnostics GmbH, Cat.No. 1836145) Final conc.: 40 μ/ml • TMB: Tetramethylbenzidine (Intergen Company, Cat.No. 91000) • Samples: 10 mM in DMSO (stored at −20° C.), thawed at room temperature Procedure: […]

T1 sequence (P08581 25-1390): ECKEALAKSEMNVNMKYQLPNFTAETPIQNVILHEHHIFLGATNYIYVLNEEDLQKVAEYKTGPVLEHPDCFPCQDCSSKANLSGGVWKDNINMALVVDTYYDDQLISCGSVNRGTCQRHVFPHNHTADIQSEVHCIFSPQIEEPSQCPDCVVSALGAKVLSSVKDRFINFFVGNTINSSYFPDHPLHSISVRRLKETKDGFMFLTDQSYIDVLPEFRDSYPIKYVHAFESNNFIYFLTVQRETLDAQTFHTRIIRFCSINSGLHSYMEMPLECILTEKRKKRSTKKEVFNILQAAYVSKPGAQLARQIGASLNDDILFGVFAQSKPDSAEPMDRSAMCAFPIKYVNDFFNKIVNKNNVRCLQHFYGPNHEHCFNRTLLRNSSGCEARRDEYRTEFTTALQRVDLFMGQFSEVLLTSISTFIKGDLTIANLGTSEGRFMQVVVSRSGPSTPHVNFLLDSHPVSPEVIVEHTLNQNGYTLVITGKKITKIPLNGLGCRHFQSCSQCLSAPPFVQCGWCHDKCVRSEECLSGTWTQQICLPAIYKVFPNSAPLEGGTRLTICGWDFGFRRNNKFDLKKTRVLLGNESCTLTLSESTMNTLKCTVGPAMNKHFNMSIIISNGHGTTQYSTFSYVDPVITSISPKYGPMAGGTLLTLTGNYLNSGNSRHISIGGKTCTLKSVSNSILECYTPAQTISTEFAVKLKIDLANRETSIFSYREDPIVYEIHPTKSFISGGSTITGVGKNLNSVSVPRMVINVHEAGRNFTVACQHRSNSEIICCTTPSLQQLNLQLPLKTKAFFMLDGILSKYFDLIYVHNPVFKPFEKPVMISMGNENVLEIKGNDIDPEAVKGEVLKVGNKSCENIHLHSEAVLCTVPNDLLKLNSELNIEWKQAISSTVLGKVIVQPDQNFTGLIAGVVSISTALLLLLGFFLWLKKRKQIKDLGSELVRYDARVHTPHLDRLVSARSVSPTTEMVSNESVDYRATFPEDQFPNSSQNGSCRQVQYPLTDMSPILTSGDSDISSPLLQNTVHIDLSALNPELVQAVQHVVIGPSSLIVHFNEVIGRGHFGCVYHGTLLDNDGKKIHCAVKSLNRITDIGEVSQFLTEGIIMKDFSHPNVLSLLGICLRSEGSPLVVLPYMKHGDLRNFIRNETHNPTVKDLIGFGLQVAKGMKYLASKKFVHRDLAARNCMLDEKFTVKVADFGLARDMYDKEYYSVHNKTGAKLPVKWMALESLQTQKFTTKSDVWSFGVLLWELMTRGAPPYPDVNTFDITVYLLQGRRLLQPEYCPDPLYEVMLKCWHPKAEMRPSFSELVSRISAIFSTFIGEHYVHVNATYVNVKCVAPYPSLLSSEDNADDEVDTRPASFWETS

IC50	SMILES
32 nM	OCCCNc1nccc(-c2[nH]c(-c3c(Cl)cc(OCCO)cc3Cl)nc2-c2cccc(OCc3cccnc3)c2)n1 [Example H2, 2-(2,6-dichloro-4-[2-hydroxyethoxy]phenyl)-4-(3-(3-pyridinylmethyloxy)phenyl)-5-(2-[3-hydroxypropylamino]pyrimidin-4-yl)-N-1H-imidazole]
54 nM	OCCCNc1nccc(-c2[nH]c(-c3c(Cl)cc(OCCO)cc3Cl)nc2-c2cccc(OCc3ccncc3)c2)n1 [Example H3, 2-(2,6-dichloro-4-[2-hydroxyethoxy]phenyl)-4-(3-(4-pyridinylmethyloxy)phenyl)-5-(2-[3-hydroxypropylamino]pyrimidin-4-yl)-N-1H-imidazole]
22 nM	OCCCNc1nccc(-c2[nH]c(-c3c(Cl)cc(OCCO)cc3Cl)nc2-c2cccc(OCc3ccccn3)c2)n1 [Example H1, 2-(2,6-dichloro-4-[2-hydroxyethoxy]phenyl)-4-(3-(2-pyridinylmethyloxy)phenyl)-5-(2-[3-hydroxypropylamino]pyrimidin-4-yl)-N-1H-imidazole]
23 nM	OCCCNc1nccc(-c2[nH]c(-c3c(Cl)cncc3Cl)nc2-c2cccc(OCc3ccccc3)c2)n1 [Example H4, 2-(3,5-dichloropyridin-4-yl)-4-(3-benzyloxyphenyl)-5-(2-[3-hydroxypropyl-amino]pyrimidin-4-yl)-N-1H-imidazole]
